Data published in patent EP1263420B1 (priority 2000, dated 2001).
“Also recorded” adds a separate entry of the source.

Key:
[1] = system: TGase II; experiment: TGase II activity in cultured MCF-7 cells; format: cell-based, human
Description: MCF-7 cells were seeded at a density of 1.5 x 10^5 cells/ml medium (500ml DMEM + 56.2ml FBS + 5.6m1 AB/AM) in 6cm diameter dishes for 24 hours and treated with either DMSO, RA, or 13-cis RA at 10^-6 M and grown to confluence (about 72 hours). Cells were harvested and Transglutaminase II activity was measured as described below. Nebulizer solution, inhalation procedures, details of animal housing are described below.
Cultured cells were placed in 100 µl scraping buffer [A: 2800µl (400µl 0.5M Na-Phosphate, 500µl 0.01M EDTA, 100µl 1M DTT , 9ml PBS total 10ml) + B:700µl (10µl 20mg/ml PMSF 790µl PBS total 800µl)] for each dish. Cells were broken by a sonicator and kept in ice until used. TGase II assay was conducted as described below and previously {8217}.
Enzyme assay mixtures were prepared by adding 80µl of SUBSTRATE mixture (322.8µl H2O, 120µl 0.5M NaBorate, 60µl 0.01M EDTA, 60µl 0.1M CaCl2, 6µl 1M DTT, 240µl dimethyl casein, 30µl Triton X-100, 1.2µl [^3H]-Putrescine, 120µl Putrescine) to 20µl sample, 20µl scraping buffer for blank control , 20 µl (18µl scraping buffer + 2µl TGase II) for positive control. Samples were mixed in 15ml tubes, the tubes were shaken before putting them into a 28°C water bath for 30 minutes. Reactions were slowed down in an ice bath. 80µl of the incubation mixture was adsorbed onto paper disks. These were immediately dropped into cold 10% TCA (0.1% Putrescine) and washed with agitation for 7 minutes, followed by 2 additional washes with 5% TCA (0.05% putrescine) for 5~7 minutes, and once more with cold (-20°C) 95% ethanol for 5 minutes. Paper disks were dried and placed into 5ml Aquasol, and counted in a Liquid Scintillation Counter. Protein concentration determination was conducted by the Bradford method.

[2] = system: RARβ; experiment: Western blot of SENCAR mouse liver after dietary RA; format: in vivo; conditions: for RARβ densitometric analysis: male SENCAR mouse liver
Description: (§1) The experimental groups were divided in two groups of five mice (Table 5) each including a low and high dose group that were fed either a physiological RA diet of 3µg/g diet) or a pharmacological RA diet (30µg/g diet) for 75 weeks, respectively.
(§2) SENCAR mice (30) were divided into six experimental groups. The experimental groups were as follows (Table 7): groups 1, 3 and 5 (5 mice each) were fed a physiological RA diet (3µg/g diet) for 1, 14 and 28 days; groups 2, 4 and 6 (each of 5 mice) were fed a pharmacological RA diet (30µg/g diet) for 1, 14 and 28 days.
(§3) Polyclonal rabbit anti-mouse antibodies against RAR, and (SANTA CRUZ Biotechnology Inc., San Francisco, CA) were used. BM Chemiluminescense Western Blotting Kit (Mouse/Rabbit) was used (Boehringer Mannheim Corporation, Indianapolis) for the Westerns.
(§4) Tissues were collected, frozen in dry ice and kept at -70°C until used. 500mg aliquots were diced in small pieces and homogenized in 300µl of cold PBS, using the hand held homogenizer for 2~3 minutes. Sample and washes were centrifuged at 5000xg for 20 minutes. The pellet was suspended in 400 µl of ice-cold Buffer A [2µl 0.5M EDTA, 10µl 100mM EGTA, 50µl 100mM PMSF, 10µl 1M DTT, 10ml (10mM HEPES pH 7.9 + 10mM KCl)], and left at ice temperature for 15 minutes. 25 µl of 10% solution of NP-40 was added and samples were mixed in a vortex vigorously for 10 seconds. Samples were centrifuged at 14,000xg for 1 minute at 4°C and the pellet treated once more in this fashion (resuspended etc.). The supernatant was removed and 100µl of ice-cold Buffer C [4µl 0.5M EDTA, 20µl 100mM EGTA, 20µl 100mM PMSF, 2µl 1 M DTT, 2ml (20mM HEPES pH 7.9 + 0.4M NaCl)] was added. Pellets were resuspended by tapping gently on the bottom of the Eppendorf tubes. Samples were rocked vigorously in a bucket of ice on an orbital shaker for 30 minutes. Samples were centrifuged at 14,000 xg for 5 minutes at 4°C. Protein determination of supernatant was conducted by the Bradford method.
(§5) Samples were prepared by adding one part of the Sample Buffer to one part of the sample and mixing well. Samples were heated at 95°C for 5 minutes to induce denaturation. 5µl of Rainbow Standard and 5µl ofBiotinylated Molecular Marker were added to parallel wells. 20µg protein per sample was loaded in each lane. Electrophoresis was performed with voltage set at 125V for about 1 ~ 1.5 hours. Gel transfer was executed at 25V for 2 hours. The membrane was stained in Ponceau S. for 5 minutes and destained with one wash of 5% acetic acid. The membrane was then washed in TBS solution until the staining disappeared. Membranes were incubated in 1ml blocking solution and 9ml TBS for 60 minutes. Membranes were incubated in 1ml of blocking solution and 19ml TBS along with 20µl primary antibody solution overnight (dilution of 1 : 1000). Membranes were washed in PBS-Tween 20, 3 times for 10 minutes each. They were finally incubated in 1ml blocking solution and 19ml TBS along with 20µl Antibiotin HRP - Linked Antibody and 2µl of secondary (rabbit anti-mouse antibody) (1 : 10,000 dilution) for 30 minutes. The membranes were washed in PBS - Tween 20, 4 times for 10 minutes each. The film was exposed for development and detection.

[3] = system: RARα; experiment: as above; format: in vivo; conditions: for RARα densitometric analysis: male SENCAR mouse liver
Description: as §1, §2, §3, §4, §5

[4] = system: RARγ; experiment: as above; format: in vivo; conditions: for RARγ densitometric analysis: male SENCAR mouse liver
Description: as §1, §2, §3, §4, §5

[5] = system: lung tissue RARs; experiment: Western blot of SENCAR mouse lung tissue after dietary RA; format: in vivo
Description: as §1, §2, §3
Tissues were collected, frozen in dry ice and kept at -70°C until used. 500mg aliquots were diced in small pieces and homogenized in 300µl of cold PBS, using the hand held homogenizer for 2~3 minutes. Sample and washes were centrifuged at 5000xg for 20 minutes. The pellet was suspended in 400 µl of ice-cold Buffer A [2µl 0.5M EDTA, 10µl 100mM EGTA, 50µl 100mM PMSF, 10µl 1M DTT, 10ml (10mM HEPES pH 7.9 + 10mM KCl)], and left at ice temperature for 15 minutes. 25 µl of 10% solution of NP-40 was added and samples were mixed in a vortex vigorously for 10 seconds. […]

[6] = system: TGase II; experiment: TGase II assay of SENCAR mouse liver tissue after dietary RA; format: in vivo; conditions: 75 Weeks
Description: The supernatant was removed and kept in ice until used.
Reactions were slowed down in an ice bath. […] Protein concentration determination was conducted by the Bradford method.

[7] = 30µg/g diet versus 3µg/g diet, 75 weeks
[8] = pharmacological dietary RA over physiological RA (3µg/g diet), day 1

For `CC1=C(/C=C/C(C)=C/C=C/C(C)=C/C(=O)O)C(C)(C)CCC1` [RA, all-trans-retinoic acid], the fold induction at 1 µM ([1]; Homo sapiens, MCF7, 72 h, read-out: stimulating TGase II activity) was 7.4, the “TGase II Activity” value ([1]; MCF-7 cells, 10^-6 M, 72 hours, DMSO control 0.183) was 1.359 +/- 0.098 picomoles/µg protein/30 minutes and the “upregulated liver RAR (β)” value [2, 7] was 13.5 fold. The RARβ densitometric analysis ([2]; 3µg/g diet, 75 weeks) was 18.9 +/- 7.4 IDV, the RARβ densitometric analysis ([2]; 30µg/g diet, 75 weeks) was 254 +/- 31.9 IDV and the “stimulated liver RAR (β)” value [2, 8] was 4 fold. The “upregulated liver RAR (α)” value [3, 7] was 21.8 fold, the RARα densitometric analysis ([3]; 3µg/g diet, 75 weeks) was 12.1 +/- 7.2 IDV and the RARα densitometric analysis ([3]; 30µg/g diet, 75 weeks) was 264 +/- 21.3 IDV. The “stimulated liver RAR (α)” value [3, 8] was 2 fold, the “upregulated liver RAR (γ)” value [4, 7] was 12.5 fold and the RARγ densitometric analysis ([4]; 3pg/g diet as printed, 75 weeks) was 23.1 +/- 6.7 IDV. For the same compound, the RARγ densitometric analysis ([4]; 30µg/g diet, 75 weeks) was 288 +/- 17.4 IDV, the “stimulated liver RAR (γ)” value [4, 8] was 2.1 fold and the “induction of lung tissue RARs” value ([5]; long term feeding, 30µg/g diet) was “failed to induce RARs”. The “effect on lung tissue RARs” value ([5]; time course 1, 14 and 28 days, 30µg/g versus 3µg/g diet, not shown) was “no effect; also recorded: without any measurable effect on lung tissue RARs”, the “TGase II assay DPM/µg protein” value ([6]; pharmacological RA diet 30µg/g) was 49,260 DPM/µg protein and the “TGase II assay DPM/µg protein” value ([6]; physiological RA diet 3µg/g) was 9,820 DPM/µg protein.
